Data reported in US6623766B1, “Process for insecticidal formulation effective in controlling malarial vector, mosquitoes” (Council of Scientific and Industrial Research, priority 2002, dated 2003).

Test system: mosquito (Anopheles stephensi) larvae
Assay: Standard WHO larvicidal test (WHO, 1981, slightly modified) on fourth-stage mosquito larvae, mortality after 24 hours
Format: in vivo
Protocol: (§1) Essential oil (0.1 ml) obtained from plant genus Foeniculum vulgare was first mixed with Tween-80 (0.1 ml) of 0.001% concentration and then the mixture was dissolved in water to make the solution of 0.01% concentration. This solution was tested against mosquito (Anopheles stephensi) larvae in the laboratory.
(§2) Standard WHO test (WHO, 1981) was employed with slight modification in the test procedure. A single fourth-stage larva was put into each of fifty vials containing 5 ml of the got test solution of each concentration. Single vial with one larva was used in one replication. Thus a total of 50 insects were used in fifty replications. Mortality data for mosquito larvae were recorded after 24 hours.
as §1, with “Mentha spicata var. viridis” for “Foeniculum vulgare”
as §2, with “the” for “the got”
as §1, with “Zingiber officinale” for “Foeniculum vulgare”
Tween-80 purchased from Hi-Media, Mumbai, India, an emulsifying agent (0.1-ml) of 0.001% concentration was dissolved in water to make the solution of 0.01% concentration. This solution was tested against mosquito (Anopheles stephensi) larvae in the laboratory.
as §1, with “oil (0.05 ml each)” for “oil (0.1 ml)”, “vulgare and Mentha spicata var. viridis were” for “vulgare was”
as §1, with “oil (0.05 ml each)” for “oil (0.1 ml)”, “vulgare and Zingiber officinale were” for “vulgare was”, “laboratory. […]” for “laboratory.”

| Molecule | Mean % mortality after 24 hours (0.0016% concentration (standard), Anopheles stephensi larvae, Table 1 summary) [%] | mortality (0.0016% concentration, fourth-stage larvae, recorded after 24 hours, laboratory conditions) [%] | Mean % mortality after 24 hours (in vivo) [%] | mortality (in vivo) [%] |
| --- | --- | --- | --- | --- |
| C/C=C\c1cc(OC)c(OC)cc1OC [Example 14, β-Asarone] | 100 | 100.0 | – | – |
| Tween-80 [Example 4] | – | – | 0 | 0.0 |
